Source: US20040219622A1, “Phosphine-containing formulations for chemiluminescent luciferase assays” (priority 2001, published 2004)

Columns and labels:
Assay type in all cases: biochemical
firefly luciferase [1] = biological target: T1, firefly luciferase (Photinus pyralis, UniProt P08659); assay: Firefly luciferase reaction with additives TCEP, CoA, DTT alone or combined (Example 3); conditions: CoA 0.5 mM, DTT 5 mM, light output then rapidly decreased
Description: A common firefly luciferase reaction mix was prepared by combining stock solutions of Tris/Mg buffer, D-luciferin, and ATP. A 600 μl aliquot of this mix consisted of 480 μl of 0.1 M Tris, 10 mM MgCl2, pH 8.0, 85 μl of 10 mM D-luciferin in 0.1 M Tris, pH 8.0, and 17 μl of 50 mM ATP (1889485) in 0.1 M Tris, pH 8.0. Separate aliquots of the reaction mixture were then supplemented with various combinations of additives selected from a 0.5 M TCEP solution, a stock solution of CoA (5 mM CoA in 0.1 M Tris, pH 8.0), or a stock solution of DTT (50 mM DTT in 0.1 M Tris, pH 8.0) and then brought to a final volume of 1 ml with 0.1 M Tris, pH 8.0. In such fashion, the following solutions were obtained: a solution with no additives (None), TCEP (T), TCEP plus CoA (TC), TCEP plus DTT (TD), TCEP plus CoA plus DTT (TCD), CoA (C), CoA plus DTT (CD), and DTT (D or DTT). Where used, the final concentrations of TCEP, CoA, and DTT were 50, 0.5, and 5 mM, respectively. […]
Firefly luciferase was diluted from a stock solution (2 μl of 14.7 mg/ml) with 0.1 M Tris, pH 8.0, containing 2 mg/ml bovine serum albumin. […] The plate was immediately placed into an Orion Luminometer, and light output from the plate wells was measured with sequential plate reading cycles over a one hour time frame, each cycle allowing the wells of the plate to be read with a time interval of approximately 140 seconds.

firefly luciferase [2] = biological target: T1, firefly luciferase; assay: ATP assay with TCEP in firefly luciferin-luciferase reaction (Example 4); conditions: 5 mM DTT; 33.3 mM TCEP; 0-500 μM ATP
Description: A common solution was prepared by combining stock solutions of Tris/Mg buffer, D-luciferin, and TCEP. A 2.25 ml aliquot of this solution contained 1.2 ml of 0.1 M Tris, 10 mM MgCl2, pH 8.0, 18.75 μl of 10 mM D-luciferin in 0.1 M Tris, pH 8.0, 165 μl of 0.5 M TCEP, with the remaining volume being 0.1 M Tris, pH 8.0. 0.5 ml of this mixture was removed and to it was added 11 μl of an ATP stock solution (50 mM ATP in 0.1 M Tris, pH 8.0) and 39 μl of 0.1 M Tris, pH 8.0; the remaining 1.75 ml of mixture received 175 μl of 0.1 M Tris, pH 8.0. The ATP-containing aliquot was then serially diluted with the non-ATP-containing mixture to yield a final ATP concentration series of 500, 250, 125, 62.5, 31.25, 15.625, and 0 μM. The non-ATP-containing mixture served as the control for zero ATP concentration. In this series of reaction mixtures with varying concentrations of ATP, the final luciferin, magnesium, and TCEP concentrations were 75.8 μM luciferin, 4.8 mM magnesium, and 33.3 mM TCEP. […]
Firefly luciferase was diluted from a stock solution (2 μl of 14.7 mg/ml) with 0.1 M Tris, pH 8.0 containing 2 mg/ml bovine serum albumin. […] The plate was immediately placed into an Orion Luminometer and light output from the wells was measured with sequential plate reading cycles, each cycle allowing the wells of the plate to be read with a time interval of approximately 2.25 minutes. […]

firefly luciferase [3] = biological target: T1, firefly luciferase; assay: TCEP-mediated firefly luciferase reaction with DTT series (Example 5); conditions: 33.5 mM TCEP; for signal decrease from first reading cycle to 11 minutes 34 seconds later: no added DTT
Description: A common solution was prepared by combining stock solutions of Tris/Mg buffer, D-luciferin, TCEP, and ATP. This solution was prepared by combining 12 ml of 0.1 M Tris, 10 mM MgCl2, pH 8.0, 187.5 μl of 10 mM D-luciferin in 0.1 M Tris, pH 8.0, […] 0.5 M TCEP, and 30 μl of an ATP stock solution (50 mM ATP in 0.1 M Tris, pH 8.0) and 1.02 ml of 0.1 M Tris, pH 8.0. A 150 μl aliquot of this solution was added to 100 μl of 50 mM DTT stock solution (50 mM DTT in 0.1 M Tris, pH 8.0) for a final DTT concentration of 20 mM, and another 1.35 ml aliquot of the solution received 0.9 ml 0.1 M Tris, pH 8.0. The 20 mM DTT reaction solution was further diluted with the second aliquot to give a final DTT concentration series of […], and 0 mM DTT. In this series of reaction mixtures with varying concentrations of DTT, the final luciferin, magnesium, and TCEP concentrations were 75.5 μM luciferin, 4.8 mM magnesium, and 33.5 mM TCEP and 238 μM ATP. Other reaction mixtures with varying DTT concentrations were also prepared in like fashion, but with a final ATP concentration held constant at either 59.5, 29.75 or 14.875 μM, which was achieved by further dilution of the ATP solution with 0.1 M Tris, pH 8.
Firefly luciferase was diluted from a stock solution (2 μl of 14.7 mg/ml) with 0.1 M Tris, pH 8.0, containing 2 mg/ml bovine serum albumin. 10 μl aliquots containing 181 pg of enzyme were aliquoted into the wells of an opaque white 96-well microplate, after which 100 μl of the reaction mixtures with varying DTT concentrations were added. The plate was immediately placed into an Orion Luminometer, and light output from the wells was measured with sequential plate reading cycles, each cycle allowing the wells of the plate to be read with a time interval of approximately 2.25 minutes.
FIGS. 10 and 11 illustrate the results of this experiment. FIG. 10 illustrates the results obtained where the final ATP concentration of the reaction mixture was 238 μM, and FIG. 11 illustrates the results obtained where the final ATP concentration of the reaction mixture was 30 μM. Both graphs relate the observed RLU at each reading cycle expressed as a relative percentage of the signal obtained with the well receiving no DTT supplementation at the first reading cycle, with this signal being assigned 100%.

Renilla luciferase = biological target: T2, Renilla luciferase (Renilla reniformis, UniProt P27652); assay: Renilla luciferase assay with or without TCEP (Example 6); conditions: 33.3 μl of 0.5 M TCEP added to 466.7 μl coelenterazine assay mixture
T2 construct: purchased Chemicon 4400
T2 sequence (P27652 1-311): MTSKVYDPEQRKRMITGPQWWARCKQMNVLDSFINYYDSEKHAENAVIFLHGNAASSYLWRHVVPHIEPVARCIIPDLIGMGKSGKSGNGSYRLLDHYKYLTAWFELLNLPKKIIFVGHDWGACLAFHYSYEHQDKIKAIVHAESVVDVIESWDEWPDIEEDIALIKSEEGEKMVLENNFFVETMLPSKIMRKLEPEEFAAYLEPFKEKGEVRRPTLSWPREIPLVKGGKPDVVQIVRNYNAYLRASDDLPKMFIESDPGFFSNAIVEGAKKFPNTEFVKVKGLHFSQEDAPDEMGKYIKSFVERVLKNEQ
Description: In order to ascertain whether or not TCEP would interfere with a Renilla assay, an experiment was conducted utilizing a Renilla assay mixture, with or without TCEP supplementation. A Renilla assay mixture was prepared by combining 480 μl of 0.1 M Tris, 10 mM MgCl2, 1 mM EDTA, pH 8.0, with 437.7 μl of 0.1 M Tris, pH 8.0, and 16.7 μl of a coelenterazine stock solution (59 μM coelenterazine in denatured ethanol prepared from Molecular Probes Catalog number C-6777). This solution was split into 2 aliquots of 466.7 μl, and one aliquot received 33.3 μl of 0.5 M TCEP and the other aliquot received 33.3 μl 0.1 M Tris, pH 8.0.
Renilla luciferase purchased from Chemicon (Catalog number 4400) was diluted with 1 ml phosphate-buffered saline (10 mM sodium phosphate, 150 mM NaCl, pH 7.2) and stored frozen at −80° C. in 10 μl aliquots, each aliquot containing 100 ng enzyme. An aliquot was removed and diluted with 0.1 M Tris, pH 8.0, for a concentration series of 166, 55, 18.5, and 0 pg/10 μl. 10 μl of each enzyme concentration were pipetted in duplicate to the wells of a white opaque 96-well microplate, and 100 μl of either of the TCEP containing solution or the solution without TCEP was pipetted into the wells to initiate the reaction. The plate was immediately placed into an Orion Luminometer, and light output from the wells was measured with sequential plate reading cycles.

firefly luciferase [4] = biological target: T1, firefly luciferase; assay: Firefly luciferase reaction with TCEP series plus 5 mM DTT (Example 2)
Description: In this experiment, final TCEP concentration was varied from 0-96 mM in the reaction mixture, with the reaction mixture also containing a final concentration of DTT of 5 mM. The conditions for this experiment were identical to that shown in Example 1, but with substitution of the final addition of 50 μl of 0.1 M Tris, pH 8.0, to each solution with a final addition of 50 μl of 50 mM DTT stock solution prepared in 0.1 M Tris, pH 8.0. This experiment was also conducted simultaneously and in the same microwell plate as the experiment of Example 1.

firefly luciferase [5] = biological target: T1, firefly luciferase; assay: Firefly luciferase reaction with TCEP concentration series (Example 1); conditions: for light output as % of the original signal: 96 mM TCEP
Description: A common firefly luciferase reaction mix was prepared by combining stock solutions of Tris/Mg buffer, D-luciferin, and ATP. A 900 μl aliquot of this mix consisted of 720 μl of 0.1 M Tris, 10 mM MgCl2, pH 8.0, 150 μl of 10 mM D-luciferin in 0.1 M Tris, pH 8.0, and 30 μl of 50 mM ATP in 0.1 M Tris, pH 8.0. A series of buffered TCEP preparations were prepared from a neutral pH, 0.5 M TCEP solution (Pierce Chemical Company Product No. 77720) by dilutions with 0.1 M Tris, pH 8.0, as necessary for a TCEP concentration series of 300, 150, 75, 37.5, 18.75, 9.38, 4.69, and 0 mM TCEP. 450 μl of each TCEP concentration were then added separately to 900 μl aliquots of the previously prepared mixture, followed by a final addition of 50 μl of 0.1 M Tris, pH 8.0, to each solution for a final volume of 1.4 ml. The final TCEP concentrations were, therefore, approximately 96, 48, 24, 12, 6, 3, 1.5, and 0 mM and the final Mg, luciferin, and ATP concentrations were 5.14, 1.07, and 1.07 mM, respectively.
Firefly luciferase was diluted from a stock solution (2 μl of 14.7 mg/ml) with 0.1 M Tris, pH 8.0, containing 2 mg/ml bovine serum albumin. 10 μl aliquots containing 181 pg of enzyme were aliquoted into the wells of an opaque white 96-well microplate, after which 125 μl of the reaction mixtures with varying TCEP concentrations were added. The plate was immediately placed into an Orion Luminometer (Berthold Detection Systems), and light output from the plate wells was measured for 15 sequential plate reading cycles, each cycle allowing the wells of the plate to be read with a time interval of approximately 2 minutes.

T1 sequence (P08659 whole entry): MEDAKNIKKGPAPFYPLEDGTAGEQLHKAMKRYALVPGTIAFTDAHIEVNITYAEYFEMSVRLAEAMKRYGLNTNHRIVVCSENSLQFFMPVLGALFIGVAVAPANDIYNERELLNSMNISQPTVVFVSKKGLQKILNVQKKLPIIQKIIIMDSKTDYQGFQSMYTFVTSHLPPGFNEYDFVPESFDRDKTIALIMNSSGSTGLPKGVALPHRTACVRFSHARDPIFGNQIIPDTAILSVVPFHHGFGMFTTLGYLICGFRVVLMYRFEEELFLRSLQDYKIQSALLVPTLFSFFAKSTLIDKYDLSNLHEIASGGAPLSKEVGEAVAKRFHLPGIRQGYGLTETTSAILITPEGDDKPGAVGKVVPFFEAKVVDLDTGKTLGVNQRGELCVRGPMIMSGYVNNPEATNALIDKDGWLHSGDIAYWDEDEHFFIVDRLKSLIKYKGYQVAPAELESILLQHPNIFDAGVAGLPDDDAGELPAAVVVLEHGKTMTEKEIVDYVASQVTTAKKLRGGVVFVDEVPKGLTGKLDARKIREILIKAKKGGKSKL

Row | SMILES | initial light output compared to the no addition control (firefly luciferase [1]) | RLUs on inclusion of DTT in the TCEP reaction mixture (firefly luciferase [2]) | increase of initial RLU during the first cycle vs no DTT (firefly luciferase [3]; 10 mM DTT, 30 μM ATP) | increase of initial RLU during the first cycle vs no DTT (firefly luciferase [3]; 20 mM DTT, 238 μM ATP) | less light output after 11.5 minutes compared to the initial reading (firefly luciferase [3]; 20 mM DTT, 250 μM ATP) | reduction of background (no added enzyme) compared to absence of TCEP (Renilla luciferase) | RLU at the fifteenth reading cycle compared to control with DTT but without TCEP (firefly luciferase [4]; 1.5-24 mM TCEP + 5 mM DTT) | initial RLU compared to the control reaction (DTT without TCEP) (firefly luciferase [4]; 1.5 or 3 mM TCEP, 5 mM DTT) | retention of originally observed light output at last reading cycle compared to control (firefly luciferase [4]; all TCEP concentrations (1.5-96 mM), 5 mM DTT) | signal decrease from first reading cycle to 11 minutes 34 seconds later (firefly luciferase [3]; 30 μM ATP) | signal decrease from first reading cycle to 11 minutes 34 seconds later (firefly luciferase [3]; 250 μM ATP) | light output as % of the original signal (firefly luciferase [5]; fourth reading cycle) | light output as % of the original signal (firefly luciferase [5]; last reading cycle) | initially observed light output compared to the control reaction (no TCEP) (firefly luciferase [5]; TCEP 1.5, 3 and 6 mM) | originally observed signal retained at the last reading cycle (firefly luciferase [5]; TCEP 1.5-96 mM, 15th reading cycle, about 2 min per cycle, 181 pg enzyme, control lost >90%)
1 | O[C@H](CS)[C@H](O)CS (racemic) [DTT, dithiothreitol] | increased | elevated | about 8% | about 34% | 8.5% | – | – | – | – | – | – | – | – | – | –
2 | CC(C)(COP(=O)(O)OP(=O)(O)OC[C@H]1O[C@@H](n2cnc3c(N)ncnc32)[C@H](O)[C@@H]1OP(=O)(O)O)[C@@H](O)C(=O)NCCC(=O)NCCS [CoA, Coenzyme A] | increased | – | – | – | – | – | – | – | – | – | – | – | – | – | –
3 | O=C(O)CCP(CCC(=O)O)CCC(=O)O [TCEP, Tris(2-carboxyethyl) phosphine] | – | – | – | – | – | 50% | greater RLU | greater | greater retention | about 6% | about 6% | 49% | 32% | significantly higher | 32 to 78%
